Data from ChEMBL document CHEMBL5137101, “Application of Selective SMARCA2/4 PROTAC for Mutant Cancer Therapy” (ACS Med Chem Lett, 2022).

Target: von Hippel-Lindau disease tumor suppressor/SWI/SNF-related matrix-associated actin-dependent regulator of chromatin subfamily A member 4 (Homo sapiens, UniProt P40337+P51532)
Assay: Protac activity at E3 ubiquitin-protein ligase/SMARCA4 in human VCaP cells assessed as SMARCA4 degradation incubated for 16 hrs by Western blot analysis relative to control
Type: cell-based

Chain of von Hippel-Lindau disease tumor suppressor/SWI/SNF-related matrix-associated actin-dependent regulator of chromatin subfamily A member 4 (P51532 whole entry): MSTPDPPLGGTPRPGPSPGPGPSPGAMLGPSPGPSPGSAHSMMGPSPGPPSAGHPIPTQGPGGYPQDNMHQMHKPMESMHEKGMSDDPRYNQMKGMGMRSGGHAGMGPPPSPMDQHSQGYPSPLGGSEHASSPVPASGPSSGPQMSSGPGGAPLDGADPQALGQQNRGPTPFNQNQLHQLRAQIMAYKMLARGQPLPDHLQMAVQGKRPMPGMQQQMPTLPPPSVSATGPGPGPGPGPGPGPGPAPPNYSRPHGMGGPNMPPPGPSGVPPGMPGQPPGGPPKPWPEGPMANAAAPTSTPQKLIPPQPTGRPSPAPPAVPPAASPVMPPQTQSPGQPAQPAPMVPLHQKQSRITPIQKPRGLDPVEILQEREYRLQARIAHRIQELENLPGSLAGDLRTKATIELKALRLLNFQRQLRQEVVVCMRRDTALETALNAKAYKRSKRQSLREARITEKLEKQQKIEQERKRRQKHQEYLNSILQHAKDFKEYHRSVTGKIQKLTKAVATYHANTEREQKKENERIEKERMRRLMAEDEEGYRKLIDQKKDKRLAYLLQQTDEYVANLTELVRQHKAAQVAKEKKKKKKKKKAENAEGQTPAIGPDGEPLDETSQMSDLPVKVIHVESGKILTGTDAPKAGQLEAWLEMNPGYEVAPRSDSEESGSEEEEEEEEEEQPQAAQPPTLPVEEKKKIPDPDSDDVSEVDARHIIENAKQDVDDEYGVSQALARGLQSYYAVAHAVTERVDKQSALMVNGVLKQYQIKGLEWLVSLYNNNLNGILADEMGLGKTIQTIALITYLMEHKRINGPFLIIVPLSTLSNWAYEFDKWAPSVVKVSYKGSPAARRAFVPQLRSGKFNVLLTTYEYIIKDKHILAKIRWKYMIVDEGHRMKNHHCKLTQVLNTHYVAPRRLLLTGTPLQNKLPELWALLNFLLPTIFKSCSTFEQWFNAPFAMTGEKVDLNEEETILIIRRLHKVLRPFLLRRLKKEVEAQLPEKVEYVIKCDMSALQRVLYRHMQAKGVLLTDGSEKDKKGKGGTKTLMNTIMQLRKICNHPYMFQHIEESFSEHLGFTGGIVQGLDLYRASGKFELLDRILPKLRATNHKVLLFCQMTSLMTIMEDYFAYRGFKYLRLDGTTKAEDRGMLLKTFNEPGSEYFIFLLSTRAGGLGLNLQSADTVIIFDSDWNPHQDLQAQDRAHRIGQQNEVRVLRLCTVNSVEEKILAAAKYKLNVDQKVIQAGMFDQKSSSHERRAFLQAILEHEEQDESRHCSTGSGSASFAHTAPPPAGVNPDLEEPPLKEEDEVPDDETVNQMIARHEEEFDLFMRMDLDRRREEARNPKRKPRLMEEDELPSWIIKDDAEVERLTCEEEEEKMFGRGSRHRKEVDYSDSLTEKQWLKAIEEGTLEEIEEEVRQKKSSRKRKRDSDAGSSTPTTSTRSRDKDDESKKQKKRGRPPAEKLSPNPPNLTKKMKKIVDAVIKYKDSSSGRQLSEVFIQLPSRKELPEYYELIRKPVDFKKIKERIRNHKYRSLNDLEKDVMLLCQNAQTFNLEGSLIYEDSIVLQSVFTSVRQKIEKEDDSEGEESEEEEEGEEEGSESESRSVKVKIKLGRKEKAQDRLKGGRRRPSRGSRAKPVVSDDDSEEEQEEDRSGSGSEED
Chain of von Hippel-Lindau disease tumor suppressor/SWI/SNF-related matrix-associated actin-dependent regulator of chromatin subfamily A member 4 (P40337 whole entry): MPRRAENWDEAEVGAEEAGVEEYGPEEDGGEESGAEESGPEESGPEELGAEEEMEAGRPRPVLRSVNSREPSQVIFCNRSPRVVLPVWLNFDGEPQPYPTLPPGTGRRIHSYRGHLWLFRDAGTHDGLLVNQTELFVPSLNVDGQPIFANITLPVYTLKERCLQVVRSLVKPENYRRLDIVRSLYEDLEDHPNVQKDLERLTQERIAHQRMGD

Row | SMILES | EC50 [nM]
1 | Cc1ncsc1-c1ccc([C@H](C)NC(=O)[C@@H]2C[C@@H](O)CN2C(=O)[C@@H](NC(=O)CN2CCN(c3ccc(-c4cnnc(-c5ccccc5O)c4)cc3)CC2)C(C)(C)C)cc1 | < 250
2 | Cc1ncsc1-c1ccc([C@H](C)NC(=O)[C@@H]2C[C@@H](O)CN2C(=O)[C@@H](NC(=O)CN2CCN(c3ccc(-c4cnnc(-c5ccccc5O)c4)cn3)CC2)C(C)(C)C)cc1 | < 250
3 | Cc1ncsc1-c1ccc([C@H](C)NC(=O)[C@@H]2C[C@@H](O)CN2C(=O)[C@@H](NC(=O)CN2CCC(c3ccc(-c4cnnc(-c5ccccc5O)c4)cc3)CC2)C(C)(C)C)cc1 | < 250
4 | Cc1ncsc1-c1ccc([C@H](C)NC(=O)[C@@H]2C[C@@H](O)CN2C(=O)[C@@H](NC(=O)CC2CCN(c3ccc(-c4cnnc(-c5ccccc5O)c4)cc3)CC2)C(C)(C)C)cc1 | < 250

Target: von Hippel-Lindau disease tumor suppressor/SWI/SNF-related matrix-associated actin-dependent regulator of chromatin subfamily A member 2 (Homo sapiens) (UniProt P51531+P40337)
Assay: Protac activity at E3 ubiquitin-protein ligase/SMARCA2 in human VCaP cells assessed as SMARCA2 degradation at 100 nM incubated for 16 hrs by Western blot analysis relative to control
Type: cell-based

Chain of von Hippel-Lindau disease tumor suppressor/SWI/SNF-related matrix-associated actin-dependent regulator of chromatin subfamily A member 2 (Homo sapiens) (P40337 whole entry, looked up): as the sequence (P40337 whole entry) above
Chain of von Hippel-Lindau disease tumor suppressor/SWI/SNF-related matrix-associated actin-dependent regulator of chromatin subfamily A member 2 (Homo sapiens) (P51531 whole entry, looked up): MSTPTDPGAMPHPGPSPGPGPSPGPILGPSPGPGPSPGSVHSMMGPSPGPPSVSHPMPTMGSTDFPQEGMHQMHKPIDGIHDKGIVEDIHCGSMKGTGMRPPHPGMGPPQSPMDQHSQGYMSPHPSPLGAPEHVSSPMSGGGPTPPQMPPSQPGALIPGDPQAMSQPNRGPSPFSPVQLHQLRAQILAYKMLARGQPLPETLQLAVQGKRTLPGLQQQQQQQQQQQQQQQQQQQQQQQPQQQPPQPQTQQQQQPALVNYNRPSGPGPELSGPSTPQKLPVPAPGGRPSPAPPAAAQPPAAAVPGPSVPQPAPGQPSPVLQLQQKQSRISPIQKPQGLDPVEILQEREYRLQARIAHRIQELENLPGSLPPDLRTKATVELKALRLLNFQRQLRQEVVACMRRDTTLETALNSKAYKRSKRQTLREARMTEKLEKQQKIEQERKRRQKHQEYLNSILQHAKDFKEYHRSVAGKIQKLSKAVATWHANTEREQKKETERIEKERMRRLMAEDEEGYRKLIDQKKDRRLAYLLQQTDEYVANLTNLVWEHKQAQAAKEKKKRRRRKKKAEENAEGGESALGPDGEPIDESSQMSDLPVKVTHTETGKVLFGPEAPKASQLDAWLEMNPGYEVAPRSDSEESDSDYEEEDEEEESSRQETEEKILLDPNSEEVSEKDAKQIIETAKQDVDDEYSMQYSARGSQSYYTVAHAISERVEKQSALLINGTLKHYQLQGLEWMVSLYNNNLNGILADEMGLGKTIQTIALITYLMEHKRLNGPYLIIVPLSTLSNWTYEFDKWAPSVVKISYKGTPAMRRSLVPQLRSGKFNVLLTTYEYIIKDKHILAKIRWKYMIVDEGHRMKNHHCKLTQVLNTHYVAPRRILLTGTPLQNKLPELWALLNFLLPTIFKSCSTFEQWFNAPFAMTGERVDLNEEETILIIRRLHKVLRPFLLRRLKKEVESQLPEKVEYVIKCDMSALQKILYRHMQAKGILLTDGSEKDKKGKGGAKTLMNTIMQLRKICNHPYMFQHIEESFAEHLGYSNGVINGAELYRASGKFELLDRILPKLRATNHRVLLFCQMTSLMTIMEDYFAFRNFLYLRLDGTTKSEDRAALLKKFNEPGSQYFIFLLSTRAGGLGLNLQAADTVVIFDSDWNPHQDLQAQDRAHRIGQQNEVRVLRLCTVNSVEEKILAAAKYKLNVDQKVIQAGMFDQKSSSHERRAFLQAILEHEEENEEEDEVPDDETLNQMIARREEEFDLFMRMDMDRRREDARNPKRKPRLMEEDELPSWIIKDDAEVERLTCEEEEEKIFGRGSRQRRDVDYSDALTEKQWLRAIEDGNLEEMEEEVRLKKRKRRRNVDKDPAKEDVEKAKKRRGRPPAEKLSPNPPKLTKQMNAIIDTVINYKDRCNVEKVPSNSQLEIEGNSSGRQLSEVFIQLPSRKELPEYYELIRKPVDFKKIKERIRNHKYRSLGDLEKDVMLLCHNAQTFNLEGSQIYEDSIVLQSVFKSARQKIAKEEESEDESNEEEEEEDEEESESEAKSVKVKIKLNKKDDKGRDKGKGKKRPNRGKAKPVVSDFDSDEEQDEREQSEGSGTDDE

Row | SMILES | Activity [%]
5 | Cc1ncsc1-c1ccc([C@H](C)NC(=O)[C@@H]2C[C@@H](O)CN2C(=O)[C@@H](NC(=O)C2CCN(c3ccc(-c4cnnc(-c5ccccc5O)c4)cc3)CC2)C(C)(C)C)cc1 | 76
6 | Cc1ncsc1-c1ccc([C@H](C)NC(=O)[C@@H]2C[C@@H](O)CN2C(=O)[C@@H](NC(=O)CN2CCN(c3ccc(-c4cnnc(-c5ccccc5O)c4)cc3)CC2)C(C)(C)C)cc1 | 94
7 | Cc1ncsc1-c1ccc([C@H](C)NC(=O)[C@@H]2C[C@@H](O)CN2C(=O)[C@@H](NC(=O)CN2CCN(c3ccc(-c4cnnc(-c5ccccc5O)c4)cn3)CC2)C(C)(C)C)cc1 | 94
8 | Cc1ncsc1-c1ccc([C@H](C)NC(=O)[C@@H]2C[C@@H](O)CN2C(=O)[C@@H](NC(=O)CN2CCC(c3ccc(-c4cnnc(-c5ccccc5O)c4)cc3)CC2)C(C)(C)C)cc1 | 91
9 | Cc1ncsc1-c1ccc([C@H](C)NC(=O)[C@@H]2C[C@@H](O)CN2C(=O)[C@@H](NC(=O)CC2CCN(c3ccc(-c4cnnc(-c5ccccc5O)c4)cc3)CC2)C(C)(C)C)cc1 | 97
10 | Cc1ncsc1-c1ccc(CNC(=O)[C@@H]2C[C@@H](O)CN2C(=O)[C@@H](NC(=O)CN2CCC(c3ccc(-c4cnnc(-c5ccccc5O)c4)cc3)CC2)C(C)(C)C)cc1 | 75

Target: von Hippel-Lindau disease tumor suppressor/SWI/SNF-related matrix-associated actin-dependent regulator of chromatin subfamily A member 4 (Homo sapiens) (UniProt P51532+P40337)
Assay: Protac activity at E3 ubiquitin-protein ligase/SMARCA4 in human VCaP cells assessed as SMARCA4 degradation at 100 nM incubated for 16 hrs by Western blot analysis relative to control
Type: cell-based

Chain of von Hippel-Lindau disease tumor suppressor/SWI/SNF-related matrix-associated actin-dependent regulator of chromatin subfamily A member 4 (Homo sapiens) (P40337 whole entry, looked up): as the sequence (P40337 whole entry) above
Chain of von Hippel-Lindau disease tumor suppressor/SWI/SNF-related matrix-associated actin-dependent regulator of chromatin subfamily A member 4 (Homo sapiens) (P51532 whole entry, looked up): as the sequence (P51532 whole entry) above

Row | SMILES | Activity [%]
11 | Cc1ncsc1-c1ccc([C@H](C)NC(=O)[C@@H]2C[C@@H](O)CN2C(=O)[C@@H](NC(=O)C2CCN(c3ccc(-c4cnnc(-c5ccccc5O)c4)cc3)CC2)C(C)(C)C)cc1 | 0
12 | Cc1ncsc1-c1ccc([C@H](C)NC(=O)[C@@H]2C[C@@H](O)CN2C(=O)[C@@H](NC(=O)CN2CCN(c3ccc(-c4cnnc(-c5ccccc5O)c4)cc3)CC2)C(C)(C)C)cc1 | 0
13 | Cc1ncsc1-c1ccc([C@H](C)NC(=O)[C@@H]2C[C@@H](O)CN2C(=O)[C@@H](NC(=O)CN2CCN(c3ccc(-c4cnnc(-c5ccccc5O)c4)cn3)CC2)C(C)(C)C)cc1 | 0
14 | Cc1ncsc1-c1ccc([C@H](C)NC(=O)[C@@H]2C[C@@H](O)CN2C(=O)[C@@H](NC(=O)CN2CCC(c3ccc(-c4cnnc(-c5ccccc5O)c4)cc3)CC2)C(C)(C)C)cc1 | 0
15 | Cc1ncsc1-c1ccc([C@H](C)NC(=O)[C@@H]2C[C@@H](O)CN2C(=O)[C@@H](NC(=O)CC2CCN(c3ccc(-c4cnnc(-c5ccccc5O)c4)cc3)CC2)C(C)(C)C)cc1 | 40
16 | Cc1ncsc1-c1ccc(CNC(=O)[C@@H]2C[C@@H](O)CN2C(=O)[C@@H](NC(=O)CN2CCC(c3ccc(-c4cnnc(-c5ccccc5O)c4)cc3)CC2)C(C)(C)C)cc1 | 0

Target: von Hippel-Lindau disease tumor suppressor/SWI/SNF-related matrix-associated actin-dependent regulator of chromatin subfamily A member 2 (Homo sapiens, UniProt P40337+P51531)
Assay: Protac activity at E3 ubiquitin-protein ligase/SMARCA2 in human VCaP cells assessed as SMARCA2 degradation incubated for 16 hrs by Western blot analysis relative to control
Type: cell-based

Chain of von Hippel-Lindau disease tumor suppressor/SWI/SNF-related matrix-associated actin-dependent regulator of chromatin subfamily A member 2 (P51531 whole entry): as the sequence (P51531 whole entry, looked up) above
Chain of von Hippel-Lindau disease tumor suppressor/SWI/SNF-related matrix-associated actin-dependent regulator of chromatin subfamily A member 2 (P40337 whole entry): as the sequence (P40337 whole entry) above

Row | SMILES | EC50 [nM]
17 | Cc1ncsc1-c1ccc([C@H](C)NC(=O)[C@@H]2C[C@@H](O)CN2C(=O)[C@@H](NC(=O)CN2CCN(c3ccc(-c4cnnc(-c5ccccc5O)c4)cc3)CC2)C(C)(C)C)cc1 | < 250
18 | Cc1ncsc1-c1ccc([C@H](C)NC(=O)[C@@H]2C[C@@H](O)CN2C(=O)[C@@H](NC(=O)CN2CCN(c3ccc(-c4cnnc(-c5ccccc5O)c4)cn3)CC2)C(C)(C)C)cc1 | < 250
19 | Cc1ncsc1-c1ccc([C@H](C)NC(=O)[C@@H]2C[C@@H](O)CN2C(=O)[C@@H](NC(=O)CN2CCC(c3ccc(-c4cnnc(-c5ccccc5O)c4)cc3)CC2)C(C)(C)C)cc1 | < 250
20 | Cc1ncsc1-c1ccc([C@H](C)NC(=O)[C@@H]2C[C@@H](O)CN2C(=O)[C@@H](NC(=O)CC2CCN(c3ccc(-c4cnnc(-c5ccccc5O)c4)cc3)CC2)C(C)(C)C)cc1 | < 250
